In US12350306B2, “Modifying taste and sensory irritation of smokeless tobacco and non-tobacco products” (Altria Client Services LLC, priority 2013, dated 2025):

Columns and labels:
[1] = molecular target: TRPV1 channel (Homo sapiens, UniProt Q8NER1); conditions: cited from earlier work
[2] = experimental animal models; cited from earlier work
[3] = Perceived bitterness of caffeinated water formulations; assay type: in vivo; conditions: caffeinated water formulation
Description: Liquid formulations were prepared by combining caffeinated water or commercially available grapefruit juice with Cremophor® alone, citric acid alone or the combination of Cremophor® and citric acid. […] Because grapefruit juice naturally contains citric acid, citric acid was not added to the grapefruit juice formulations.

TRPV1 channel, sequence (Q8NER1 whole entry): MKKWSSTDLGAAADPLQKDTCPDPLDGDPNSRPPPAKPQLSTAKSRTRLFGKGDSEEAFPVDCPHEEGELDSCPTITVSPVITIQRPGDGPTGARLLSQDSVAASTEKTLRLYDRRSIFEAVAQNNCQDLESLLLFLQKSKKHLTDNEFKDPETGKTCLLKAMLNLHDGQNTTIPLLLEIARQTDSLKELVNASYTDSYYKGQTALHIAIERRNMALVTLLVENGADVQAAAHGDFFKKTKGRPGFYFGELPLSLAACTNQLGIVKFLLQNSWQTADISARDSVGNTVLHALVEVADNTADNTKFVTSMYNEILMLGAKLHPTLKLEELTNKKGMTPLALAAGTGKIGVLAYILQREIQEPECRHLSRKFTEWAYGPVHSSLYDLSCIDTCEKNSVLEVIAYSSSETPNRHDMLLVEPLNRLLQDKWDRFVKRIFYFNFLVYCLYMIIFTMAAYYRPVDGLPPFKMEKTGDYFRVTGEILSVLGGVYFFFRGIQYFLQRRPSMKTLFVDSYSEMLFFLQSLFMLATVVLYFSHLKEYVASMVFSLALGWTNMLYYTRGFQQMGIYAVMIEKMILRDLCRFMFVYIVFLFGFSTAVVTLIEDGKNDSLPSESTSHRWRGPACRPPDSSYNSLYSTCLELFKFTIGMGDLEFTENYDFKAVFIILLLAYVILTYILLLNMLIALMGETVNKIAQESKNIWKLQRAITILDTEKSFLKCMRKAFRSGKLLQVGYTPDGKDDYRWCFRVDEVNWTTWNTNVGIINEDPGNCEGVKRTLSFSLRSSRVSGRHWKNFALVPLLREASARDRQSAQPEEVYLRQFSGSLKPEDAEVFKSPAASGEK

Structure (SMILES) | TRPV1 channel desensitization [1] | anti-inflammatory effects [2] | perceived bitterness [3]
CCCCCC[C@@H](O)C/C=C/CCCCCCCC(=O)O (stereo in doubt) [Ricinoleic acid, 12-hydroxy-9-cis-octadecenoic acid] | can desensitize the TRPV1 channel | anti-inflammatory effects | –
O=C(O)CC(O)(CC(=O)O)C(=O)O [citric acid] | – | – | little noticeable effect
